According to ChEMBL document CHEMBL1201862, “PubChem BioAssay data set” (2004):
The source made the active and inactive calls.

What was measured:
Protein RecA = target: T1, Protein RecA (Mycobacterium tuberculosis, UniProt P9WHJ3); experiment: Fluorescence Cell-Free Homogeneous Dose Retest to Identify Inhibitors of RecA-Intein Splicing Activity. [Related pubchem assays (depositor defined):AID2097, AID2223, AID489010, AID492950]; assay type: functional
T1 sequence (P9WHJ3 whole entry): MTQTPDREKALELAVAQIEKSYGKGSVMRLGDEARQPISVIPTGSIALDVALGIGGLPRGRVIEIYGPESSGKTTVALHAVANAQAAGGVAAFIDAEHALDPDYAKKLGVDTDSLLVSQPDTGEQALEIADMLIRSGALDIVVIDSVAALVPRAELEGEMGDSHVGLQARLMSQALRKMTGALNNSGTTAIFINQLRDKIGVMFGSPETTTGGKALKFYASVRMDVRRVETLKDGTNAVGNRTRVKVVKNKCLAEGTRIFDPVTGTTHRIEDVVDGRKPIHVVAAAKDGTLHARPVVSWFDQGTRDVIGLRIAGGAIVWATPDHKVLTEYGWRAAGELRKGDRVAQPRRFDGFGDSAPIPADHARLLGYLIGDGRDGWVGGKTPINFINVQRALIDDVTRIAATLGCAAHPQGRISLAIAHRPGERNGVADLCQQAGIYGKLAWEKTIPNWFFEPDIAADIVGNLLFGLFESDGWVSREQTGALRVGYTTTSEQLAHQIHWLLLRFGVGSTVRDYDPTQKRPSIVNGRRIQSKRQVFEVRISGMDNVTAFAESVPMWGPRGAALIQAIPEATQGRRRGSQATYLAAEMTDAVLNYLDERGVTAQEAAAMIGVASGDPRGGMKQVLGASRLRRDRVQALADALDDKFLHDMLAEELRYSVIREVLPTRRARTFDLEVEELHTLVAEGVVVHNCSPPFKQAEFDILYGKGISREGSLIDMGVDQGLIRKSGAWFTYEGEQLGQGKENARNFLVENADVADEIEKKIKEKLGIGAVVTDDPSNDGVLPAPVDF

[1] = target: Delta-type opioid receptor (Homo sapiens, UniProt P41143); experiment: HTS Image-Based Screen for Agonists of the DOR Receptor. [Related pubchem assays (depositor defined):AID1777, AID1786, AID2133]; assay type: functional
Sequence of Delta-type opioid receptor (P41143 whole entry, the tested form may be a part): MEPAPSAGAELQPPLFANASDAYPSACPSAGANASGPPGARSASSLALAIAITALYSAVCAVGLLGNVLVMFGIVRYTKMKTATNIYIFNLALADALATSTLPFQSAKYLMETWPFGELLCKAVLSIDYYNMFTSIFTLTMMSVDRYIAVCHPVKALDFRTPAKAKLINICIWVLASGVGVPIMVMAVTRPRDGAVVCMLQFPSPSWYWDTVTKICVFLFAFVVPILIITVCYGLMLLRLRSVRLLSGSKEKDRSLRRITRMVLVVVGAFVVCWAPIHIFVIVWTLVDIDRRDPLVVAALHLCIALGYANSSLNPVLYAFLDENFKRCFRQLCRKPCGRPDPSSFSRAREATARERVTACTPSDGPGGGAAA

CHO = CHO cell viability loss, potency – luminescence, cytotoxicity control for TLR9-MyD88 binding inhibitor project, dose response (AID 588339); assay type: functional, cell-based, hamster; conditions: Cricetulus griseus;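 note: CHO cells stably coexpressing TLR9 and MyD88 fusions from primary screen; compound exposure lasted 48 hours before viability readout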
[2] = target: T2, Heat shock factor protein 1 (Mus musculus, UniProt P38532); experiment: enhancement of HSF1-driven luciferase signal – cell-based, NIH3T3, luminescence, dose retest, confirmation (AID 435004); assay type: functional;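 note: stress induced by proteasome inhibitor MG132 added 30 min after compound; luciferase reporter driven by HSF1 response element in NIH3T3 cells; actives raise luminescence as potentiators of the MG132 stress response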
T2 sequence (P38532 whole entry): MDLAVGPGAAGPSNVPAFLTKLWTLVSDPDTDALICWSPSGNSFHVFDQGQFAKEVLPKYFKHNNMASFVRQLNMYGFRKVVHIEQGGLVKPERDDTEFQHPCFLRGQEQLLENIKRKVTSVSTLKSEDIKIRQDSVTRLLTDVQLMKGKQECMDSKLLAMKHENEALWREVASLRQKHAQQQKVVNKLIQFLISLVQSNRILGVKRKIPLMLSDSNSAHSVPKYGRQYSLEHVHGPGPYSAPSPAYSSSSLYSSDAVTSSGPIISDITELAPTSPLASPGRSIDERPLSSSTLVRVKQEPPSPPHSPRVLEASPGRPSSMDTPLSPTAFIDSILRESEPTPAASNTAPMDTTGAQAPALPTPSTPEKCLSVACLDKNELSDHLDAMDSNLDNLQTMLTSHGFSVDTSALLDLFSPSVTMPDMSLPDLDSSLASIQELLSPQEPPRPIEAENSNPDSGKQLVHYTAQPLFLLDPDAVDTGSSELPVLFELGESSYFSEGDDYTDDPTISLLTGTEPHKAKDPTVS

[3] = target: T3, Replicative DNA helicase DnaB (Mycobacterium tuberculosis, UniProt P9WMR3); experiment: DnaB intein splicing inhibitors, dose response, biochemical, cell-free fluorescence (AID 449749); assay type: functional
T3 sequence (P9WMR3 whole entry): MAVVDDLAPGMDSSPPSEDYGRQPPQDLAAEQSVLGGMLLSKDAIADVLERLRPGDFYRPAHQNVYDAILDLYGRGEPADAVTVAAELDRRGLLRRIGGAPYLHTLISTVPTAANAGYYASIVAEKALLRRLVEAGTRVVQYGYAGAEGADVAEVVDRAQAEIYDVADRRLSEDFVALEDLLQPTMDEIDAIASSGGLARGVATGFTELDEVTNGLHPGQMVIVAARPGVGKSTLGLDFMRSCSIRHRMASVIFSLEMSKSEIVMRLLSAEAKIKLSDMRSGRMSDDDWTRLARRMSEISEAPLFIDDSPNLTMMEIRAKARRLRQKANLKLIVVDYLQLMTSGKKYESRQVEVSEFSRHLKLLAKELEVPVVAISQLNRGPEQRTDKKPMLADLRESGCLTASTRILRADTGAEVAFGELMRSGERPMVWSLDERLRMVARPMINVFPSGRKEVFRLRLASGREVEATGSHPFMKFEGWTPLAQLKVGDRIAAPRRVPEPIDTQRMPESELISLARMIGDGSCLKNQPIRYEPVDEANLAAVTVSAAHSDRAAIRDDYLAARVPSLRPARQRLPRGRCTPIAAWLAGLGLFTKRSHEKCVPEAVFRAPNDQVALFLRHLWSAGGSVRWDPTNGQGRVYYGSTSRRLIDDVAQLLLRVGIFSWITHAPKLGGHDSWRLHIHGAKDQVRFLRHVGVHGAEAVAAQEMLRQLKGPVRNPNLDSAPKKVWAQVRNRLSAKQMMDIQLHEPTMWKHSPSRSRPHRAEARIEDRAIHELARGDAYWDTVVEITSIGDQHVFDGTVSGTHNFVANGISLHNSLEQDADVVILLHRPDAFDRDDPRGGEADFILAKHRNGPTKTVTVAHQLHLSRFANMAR

[4] = target: Dual specificity protein phosphatase 3 (Homo sapiens, UniProt P51452); experiment: VHR phosphatase inhibition, dose response, selectivity assay for STEP inhibitor project, biochemical (AID 602374); assay type: functional; conditions: read-out: IC50_Mean
Sequence of Dual specificity protein phosphatase 3 (P51452 whole entry): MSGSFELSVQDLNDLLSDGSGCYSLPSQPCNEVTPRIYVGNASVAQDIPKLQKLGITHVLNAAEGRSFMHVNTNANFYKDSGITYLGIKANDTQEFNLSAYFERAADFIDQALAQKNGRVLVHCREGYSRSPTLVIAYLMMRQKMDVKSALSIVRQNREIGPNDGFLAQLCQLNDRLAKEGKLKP

Caspase-6 = target: T4, Caspase-6 (Homo sapiens, UniProt P55212); experiment: inhibition of CASP6 peptide cleavage – biochemical, VEID-R110 fluorescence, cherry-pick, dose response (AID 720632)
T4 sequence (P55212 whole entry): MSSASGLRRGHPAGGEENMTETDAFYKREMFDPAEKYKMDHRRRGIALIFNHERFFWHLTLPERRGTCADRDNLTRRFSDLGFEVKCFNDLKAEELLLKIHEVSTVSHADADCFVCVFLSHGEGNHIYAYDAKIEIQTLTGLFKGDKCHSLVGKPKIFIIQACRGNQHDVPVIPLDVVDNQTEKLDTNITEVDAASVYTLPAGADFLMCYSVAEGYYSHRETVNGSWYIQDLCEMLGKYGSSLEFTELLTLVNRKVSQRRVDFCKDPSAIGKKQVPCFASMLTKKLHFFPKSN

Caspase-7 = Caspase-7 (Homo sapiens, UniProt P55210); experiment: caspase-7 enzyme inhibition, selectivity check – biochemical, DEVD-R110 fluorescence, cherry-pick, selectivity assay for caspase-6 inhibitor project, dose response (AID 743295); assay type: functional
Sequence of Caspase-7 (P55210 24-198 limits assumed): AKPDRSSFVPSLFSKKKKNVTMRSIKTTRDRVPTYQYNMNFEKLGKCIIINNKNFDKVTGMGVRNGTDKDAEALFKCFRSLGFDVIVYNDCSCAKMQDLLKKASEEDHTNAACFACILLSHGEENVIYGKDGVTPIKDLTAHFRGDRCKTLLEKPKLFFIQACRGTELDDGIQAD
Sequence of Caspase-7 (P55210 207-303 limits assumed): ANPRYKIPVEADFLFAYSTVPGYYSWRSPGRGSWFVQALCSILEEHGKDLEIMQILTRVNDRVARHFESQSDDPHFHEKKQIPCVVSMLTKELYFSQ

In the case of `O=[N+]([O-])c1c(Nc2ccccc2O)cc(Cl)c2nonc12`, the EC50 (Protein RecA) is reported as 1.21 µM (active), the EC50 [1] is reported as > 32 µM (inactive) and the IC50 (CHO) is reported as 1.36 µM (active). The EC50 [2] was 3.49 µM (inconclusive) and the AC50 [3] was 2.19 µM (active).

`O=S(=O)(O)c1cc(O)c2cc(Nc3ccccc3)ccc2c1` was tested, and the IC50 [4] was 0.485 µM (active), the AC50 (Caspase-6) was 0.403 µM (active) and the AC50 (Caspase-7) was 30.2 µM (active).
